# Results published in patent US20150342193A1, “Herbicidal Composition” (priority 2012, published 2015).
# Columns and labels:
# Test in all cases: greenhouse post-emergence treatment, herbicidal activity
# AMBEL = format: in vivo, Ambrosia artemisiifolia
# Description: (§1) The culture containers used were plastic pots containing loamy sand with approximately 2-3.0% of organic matter. The seeds of the test plants were sown separately for each species.
# (§2) For the post-emergence treatment, the test plants were grown to a plant height of from 3 to 15 cm, depending on the plant habit, and only then treated with the active compounds which had been suspended or emulsified in water. To this end, the test plants were either sown directly, and grown in the same containers, or they were first grown separately as seedlings and transplanted into the test containers a few days prior to treatment.
# (§3) Depending on the species, the plants were kept at 10-25° C. and 20-35° C., respectively. The test period extended over 2 to 4 weeks. During this time, the plants were tended and their response to the individual treatments was evaluated.
# (§4) Evaluation was carried out using a scale from 0 to 100. 100 means no emergence of the plants, or complete destruction of at least the above-ground parts, and 0 means no damage or normal course of growth. A good herbicidal activity is given at values of at least 70, and very good herbicidal activity is given at values of at least 85.
# (§5) In the examples below, using the method of S. R. Colby (1967) “Calculating synergistic and antagonistic responses of herbicide combinations”, Weeds 15, p. 22ff., the value E, which is expected if the activity of the individual active compounds is only additive, was calculated.
# (§6) where X=percent activity using active compound A at an application rate a; Y=percent activity using active compound B at an application rate b; E=expected activity (in %) by A+B at application rates a+b.
# (§7) where X=percent activity using active compound A at an application rate a; Y=percent activity using active compound B at an application rate b; Z=percent activity using active compound D at an application rate d; E=expected activity (in %) by A+B+D at application rates a+b+d.
# (§8) If the value found experimentally is higher than the value E calculated according to Colby, a synergistic effect is present.
# (§9) For preparation of the mixtures herbicides A were used in form of an aqueous solution comprising 22.5% by weight of the respective herbicide A. The herbicides B and D were used in form of the respective commercially available formulations as identified below. 1,5-dimethyl-6-thioxo-3-(2,2,7-trifluoro-3-oxo-4-(prop-2-ynyl)-3,4-dihydro-2H-benzo[b][1,4]oxazin-6-yl)-1,3,5-triazinane-2,4-dione (B.14) was used in form of 10% by weight suspension concentrate. If appropriate, the adjuvant DASH® HC was added to the mixtures.
# PANDI = format: in vivo, Panicum dichotomiflorun
# Description: as §1, §2, §3, §4, §5, §6, §7, §8, §9
# ERBVI = format: in vivo, Eriochloa villosa; conditions: Example 4 (title: +1% by weight DASH® HC)
# Description: as §1, §2, §3
# (§10) Evaluation was carried out using a scale from 0 to 100. […]
# (§11) In the examples below, using the method of S. R. Colby (1967) “Calculating synergistic and antagonistic responses of herbicide combinations”, Weeds 15, p. 22ff., the value E, which is expected if the activity of the individual active compounds is only additive, was calculated. […]
# (§12) If the value found experimentally is higher than the value E calculated according to Colby, a synergistic effect is present. […]
# POLPE = format: in vivo, Polygonum persicaria
# Description: as §1, §2, §3, §4, §5, §6, §7, §8, §9
# HELAN = format: in vivo, Helianthus annuus
# Description: as §1, §2, §3, §4, §5, §6, §7, §8, §9
# DIGSA = format: in vivo, Digitaria sanguinales
# Description: as §1, §2, §3, §4, §5, §6, §7, §8, §9
# COMBE = format: in vivo, Commelina benghalensis
# Description: as §1, §2, §3, §10, §11, §12
# ECHCG = format: in vivo, Echinochloa crus-galli
# Description: as §1, §2, §3, §4, §5, §6, §7, §12
# CHEAL = format: in vivo, Chenopodium album
# Description: as §1, §2, §3, §4, §5, §6, §7, §12
# ABUTH = format: in vivo, Abutilon theophrasti
# Description: as §1, §2, §3, §4, §5, §6, §7, §12
# BRADC = format: in vivo, Brachiaria decumbens
# Description: as §1, §2, §3, §10, §11, §12
# ERICA = format: in vivo, Erigeron canadensis
# Description: as §1, §2, §3, §4, §5, §6, §7, §8, §9
# PHBPU = format: in vivo, Pharbitis purpurea
# Description: as §1, §2, §3, §4, §5, §6, §7, §8, §9
# CYPES = format: in vivo, Cyperus esculentus; conditions: Example 6 (title: +1% by weight DASH® HC)
# Description: as §1, §2, §3, §10, §11, §12
# PHACA = format: in vivo, Phalaris canariensis L.; conditions: Example 10, 31.25 g/ha a.i.
# Description: as §1, §2, §3, §10, §11, §12
# BRAPP = format: in vivo, Urochloa platyphylla; conditions: Example 10, 31.25 g/ha a.i.
# Description: as §1, §2, §3, §10, §11, §12
# [1] = Example 5 (title: +1% by weight DASH® HC), post-emergence, B.28 31.25 g/ha a.i.
# [2] = Example 5 (title: +1% by weight DASH® HC); post-emergence; a1) 31.25 g/ha a.i.
smiles,measurement,setting,value
"CCOC(=O)C(Cl)Cc1cc(-n2nc(C)n(C(F)F)c2=O)c(F)cc1Cl (stereo not shown) [B.7, carfentrazone-ethyl]",herbicidal activity against AMBEL found,"AMBEL; Example 11, post-emergence, 15 g/ha a.i.",75%
same,herbicidal activity against AMBEL found,"AMBEL; Example 12, post-emergence, B.7 68 g/ha a.i.",70%
"CC(C)N(C)S(=O)(=O)NC(=O)c1cc(-n2c(=O)cc(C(F)(F)F)n(C)c2=O)c(F)cc1Cl [B.12, saflufenacil]",herbicidal activity against PANDI found,"PANDI; Example 4 (title: +1% by weight DASH® HC), post-emergence, 6.25 g/ha a.i.",95%
same,herbicidal activity against ERBVI found,ERBVI; 6.25 g/ha a.i.,80%
"Cc1c(C(=O)c2cnn(C)c2O)ccc(S(C)(=O)=O)c1C1=NOCC1 [B.25, topramezone]",herbicidal activity against POLPE found,"POLPE; Example 2, 12.5 g/ha a.i.",75%
same,herbicidal activity against HELAN found,"HELAN; Example 2, 12.5 g/ha a.i.",80%
same,herbicidal activity against DIGSA found,"DIGSA; Example 2, 12.5 g/ha a.i.",65%
same,herbicidal activity against DIGSA found,"DIGSA; Example 9, 12.5 g/ha a.i.",70%
same,herbicidal activity against COMBE found,"COMBE; Example 2, 12.5 g/ha a.i.",60%
same,herbicidal activity against ECHCG found,"ECHCG; Example 9, 12.5 g/ha a.i.",40%
same,herbicidal activity against CHEAL found,"CHEAL; Example 9, 12.5 g/ha a.i.",25%
same,herbicidal activity against ABUTH found,"ABUTH; Example 9, 25 g/ha a.i.",90%
"O=C(O)CNCP(=O)(O)O [B.26, glyphosate]",herbicidal activity against BRADC found,"BRADC; Example 1, 135 g/ha a.i.",80%
same,herbicidal activity against POLPE found,"POLPE; Example 1, 135 g/ha a.i.",60%
same,herbicidal activity against AMBEL found,"AMBEL; Example 12, post-emergence, B.26 15 g/ha a.i.",75%
"CP(=O)(O)CCC(N)C(=O)O (stereo not shown) [B.27, glufosinate]",herbicidal activity against ERICA found,"ERICA; Example 8 (title: +1% by weight DASH® HC), 100 g/ha a.i.",65%
"Cc1ccc2c(c1)[C@H](Nc1nc(N)nc(C(C)F)n1)[C@@H](C)C2 (stereo partly shown) [B.28, indaziflam]",herbicidal activity against ERICA found,"ERICA; Example 7 (title: +1% by weight DASH® HC), 75 g/ha a.i.",75%
same,herbicidal activity against PANDI found,PANDI; [1],80%
same,herbicidal activity against PANDI found,"PANDI; Example 6 (title: +1% by weight DASH® HC), post-emergence, 6.25 g/ha a.i.",60%
same,herbicidal activity against PHBPU found,PHBPU; [1],98%
same,herbicidal activity against PHBPU found,"PHBPU; Example 7 (title: +1% by weight DASH® HC), post-emergence, 75 g/ha a.i.",65%
same,herbicidal activity against CYPES found,CYPES; 6.25 g/ha a.i.,55%
"COc1c(Cl)ccc(Cl)c1C(=O)O [B.32, dicamba]",herbicidal activity against HELAN found,"HELAN; Example 3, 60 g/ha a.i.",80%
same,herbicidal activity against ERICA found,"ERICA; Example 3, 60 g/ha a.i.",95%
same,herbicidal activity against AMBEL found,"AMBEL; Example 3, post-emergence, 60 g/ha a.i.",85%
"CCNc1nc(Cl)nc(NC(C)C)n1 [D.3, atrazine]",herbicidal activity against DIGSA found,"DIGSA; Example 9, 150 g/ha a.i.",0%
same,herbicidal activity against ECHCG found,"ECHCG; Example 9, 150 g/ha a.i.",0%
same,herbicidal activity against CHEAL found,"CHEAL; Example 9, 150 g/ha a.i.",35%
same,herbicidal activity against ABUTH found,"ABUTH; Example 9, 150 g/ha a.i.",60%
"C/C=C1/CC2=C(C(=O)OC2=O)[C@H](CCC)[C@H](O)C(=O)C[C@@H]1O [a1), cornexistin]",herbicidal activity against BRADC found,"BRADC; Example 1, 125 g/ha a.i.",50%
same,herbicidal activity against POLPE found,"POLPE; Example 1, 125 g/ha a.i.",60%
same,herbicidal activity against POLPE found,"POLPE; Example 2, 125 g/ha a.i.",60%
same,herbicidal activity against HELAN found,"HELAN; Example 2, 125 g/ha a.i.",20%
same,herbicidal activity against HELAN found,"HELAN; Example 3, 125 g/ha a.i.",20%
same,herbicidal activity against DIGSA found,"DIGSA; Example 2, 125 g/ha a.i.",90%
same,herbicidal activity against DIGSA found,"DIGSA; Example 9, 31.25 g/ha a.i.",25%
same,herbicidal activity against COMBE found,"COMBE; Example 2, 125 g/ha a.i.",60%
same,herbicidal activity against ERICA found,"ERICA; Example 3, 125 g/ha a.i.",40%
same,herbicidal activity against ERICA found,"ERICA; Example 7 (title: +1% by weight DASH® HC), 31.25 g/ha a.i.",40%
same,herbicidal activity against ERICA found,"ERICA; Example 8 (title: +1% by weight DASH® HC), 31.25 g/ha a.i.",20%
same,herbicidal activity against AMBEL found,"AMBEL; Example 3, post-emergence, 125 g/ha a.i.",65%
same,herbicidal activity against AMBEL found,"AMBEL; Example 11, post-emergence, 62.5 g/ha a.i.",90%
same,herbicidal activity against AMBEL found,AMBEL; Example 12; post-emergence; a1) 15 g/ha a.i.,35%
same,herbicidal activity against PANDI found,"PANDI; Example 4 (title: +1% by weight DASH® HC), post-emergence, 62.5 g/ha a.i.",95%
same,herbicidal activity against PANDI found,PANDI; [2],90%
same,herbicidal activity against PANDI found,"PANDI; Example 6 (title: +1% by weight DASH® HC), post-emergence, 62.5 g/ha a.i.",95%
same,herbicidal activity against ERBVI found,ERBVI; 62.5 g/ha a.i.,90%
same,herbicidal activity against PHBPU found,PHBPU; [2],70%
same,herbicidal activity against PHBPU found,"PHBPU; Example 7 (title: +1% by weight DASH® HC), post-emergence, 31.25 g/ha a.i.",70%
same,herbicidal activity against CYPES found,CYPES; 62.5 g/ha a.i.,0%
same,herbicidal activity against ECHCG found,"ECHCG; Example 9, 31.25 g/ha a.i.",30%
same,herbicidal activity against CHEAL found,"CHEAL; Example 9, 31.25 g/ha a.i.",0%
same,herbicidal activity against ABUTH found,"ABUTH; Example 9, 31.25 g/ha a.i.",60%
same,herbicidal activity against PHACA found,PHACA,25%
same,herbicidal activity against BRAPP found,BRAPP,25%
